Source: patent US20250064945A1 (Arvinas Operations, Inc., priority 2021, published 2025)
Where a name gives a salt, the structure may show the parent alone.

Experiments:
[1] = target: T1, recombinant human 6×His-tagged-BRM (bromodomain-only; aa. 1377-1486) (Homo sapiens, UniProt P51531); assay: AlphaLISA competitive BRM binding assay; settings: 7 nM 6×His-BRM, 20 nM biotinylated probe
T1 construct: (bromodomain-only; aa; 1377-1486; NP_620614); made in house; host or cells: Escherichia coli
Protocol: AlphaLISA Competitive BRM Binding Assay
Compounds were serially diluted in 100% DMSO in 3-fold increments. An intermediate compound plate was created at 10% DMSO in AlphaLISA buffer (50 mM Hepes, pH 7.5, 50 mM NaCl, […] Brij-35, 0.1 mg/mL BSA) and then […] of compound transferred from the intermediate plate into a white, 384-OptiPlate (Perkin Elmer, #6007290). A solution of protein (recombinant human 6×His-tagged-BRM (bromodomain-only; aa. 1377-1486; NP_620614) expressed in Escherichia coli) and biotinylated probe are mixed and pre-incubated for 10 minutes. Following incubation, […] of protein/probe solution is added to each well of the 384-OptiPlate, resulting in final assay concentration of 7 nM protein (6×His-BRM) and 20 nM biotinylated probe. Compound and protein/probe solution were incubated at room temperature for 10 minutes. […] of anti-His conjugated AlphaLISA acceptor beads (PerkinElmer #AL128M), diluted 100× in AlphaLISA buffer, were added to each well of the assay plate. This addition was followed by a 10-minute incubation at room temperature, in the dark. Lastly, […] of streptavidin donor beads (PerkinElmer #6760002), diluted 100× in AlphaLISA buffer, were added to each well of the assay plate. Final assay plate was incubated for 15 minutes before read, signal is stable up to 4 hours after donor bead addition.
Assay plates were read using an Envision® multimode microplate reader (PerkinElmer #2105-0010) using the Europium/615 nm emission filter. Data is reported as percent displacement, 100% binding is based on the average fluorescent count (FC) of zero compound column and 0% binding is based on the average fluorescent count (FC) of zero protein (His-BRM) column. Percent displacement is calculated based on the following equation:
((100% Binding FC−Compound Well FC)/(100% Binding FC−0% Binding FC))*100
Data is fit using a 4-parameter non-linear regression analysis in GraphPad Prism.

[2] = target: T2, BRM (Homo sapiens, UniProt P51531); assay: Western blot / In-Cell Western screen of BRM degradation in SW1573 cells; format: cell-based; settings: overnight (18-20 hours) treatment; for Dmax: read-out: Dmax (%) (% degraded)
T2 construct: In-Cell Western Screen of BRM Degradation in SW1573 Cells; endogenous in cells; host or cells: SW1573 cells
Outline: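 SW1573 cells treated overnight (18-20 hours) with compound at 0.1% final DMSO. BRM measured either by Western blot of RIPA lysates with alpha-tubulin control and chemiluminescent detection, or by In-Cell Western on fixed, permeabilized cells with LI-COR dual-channel read against alpha-tubulin; Dmax and DC50 derived.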

| SMILES | Kd [1] [nM] | DC50 [2] [nM] | Dmax [2] [%] |
| --- | --- | --- | --- |
| Nc1ccn2cc(-c3ccccc3O)nc2n1 [BRM2] | < 500 |  |  |
| C#Cc1cc(N)nc2nc(-c3ccccc3O)cn12 [BRM6] | 2500 to 10000 |  |  |
| Nc1cc(C#Cc2ccncc2)n2cc(-c3ccccc3O)nc2n1 [BRM9] | ≥ 10000 |  |  |
| CN1C2CCC1CN(c1cc(N)nc3nc(-c4ccccc4O)cn13)C2 [BRM10] | ≥ 10000 |  |  |
| Oc1ccccc1-c1cn2cc(C#Cc3ccncc3)cnc2n1 [BRM11] | ≥ 10000 |  |  |
| C#Cc1cnc2nc(-c3ccccc3O)cn2c1 [BRM12] | ≥ 10000 |  |  |
| CN1CC2CCC(C1)N2c1cnc2nc(-c3ccccc3O)cn2c1 [BRM15, 2-[6-(3-methyl-3,8-diazabicyclo[3.2.1]octan-8-yl)imidazo[1,2-a]pyrimidin-2-yl] phenol] | 2500 to 10000 |  |  |
| COC/C=C/c1cnc2nc(-c3ccccc3O)cn2c1 [BRM17, 2-[6-[(E)-3-methoxyprop-1-enyl]imidazo[1,2-a]pyrimidin-2-yl]phenol] | 2500 to 10000 |  |  |
| CC(C)[C@@H](C(=O)N1C[C@H](O)C[C@H]1C(=O)N[C@@H](C)c1ccc(-c2ccnn2C)cc1)c1cc(N2CCC(CN3CCC(O[C@H]4C[C@H](Cn5cc(-c6cn7cc(-c8ccccc8O)nc7nc6N)cn5)C4)CC3)CC2)no1 [Compound 42, (2S,4R)-4-hydroxy-N-[(1S)-1-[4-(1-methyl-1H-pyrazol-5-yl)phenyl]ethyl]-1-[(2R)-3-methyl-2-{3-[4-({4-[(1r,3r)-3-({4-[7-amino-2-(2-hydroxyphenyl)imidazo[1,2-a]pyrimidin-6-yl]-1H-pyrazol-1-yl}methyl)cyclobutoxy]piperidin-1-yl}methyl)piperidin-1-yl]-1,2-oxazol-5-yl}butanoyl]pyrrolidine-2-carboxamide] |  | < 2.5 | > 75 |
| Cc1ncsc1-c1ccc([C@H](C)NC(=O)[C@@H]2C[C@@H](O)CN2C(=O)[C@@H](c2cc(N3CCC(CN4CCC(O[C@H]5C[C@H](Cn6cnc(-c7cn8cc(-c9ccccc9O)nc8nc7N)c6)C5)CC4)CC3)no2)C(C)C)cc1 [Compound 43, (2S,4R)-4-hydroxy-N-[(1S)-1-[4-(4-methyl-1,3-thiazol-5-yl)phenyl]ethyl]-1-[(2R)-3-methyl-2-{3-[4-({4-[(1r,3r)-3-({4-[7-amino-2-(2-hydroxyphenyl)imidazo[1,2-a]pyrimidin-6-yl]-1H-imidazol-1-yl}methyl)cyclobutoxy]piperidin-1-yl}methyl)piperidin-1-yl]-1,2-oxazol-5-yl}butanoyl]pyrrolidine-2-carboxamide] |  | 2.5 to 10 | > 75 |
| CC(C)[C@@H](C(=O)N1C[C@H](O)C[C@H]1C(=O)N[C@@H](C)c1ccc(-c2ccnn2C)cc1)c1cc(N2CCC(CN3CCC(O[C@H]4C[C@H](N5CCC(C/C=C/c6cn7cc(-c8ccccc8O)nc7nc6N)CC5)C4)CC3)CC2)no1 [Compound 44, (2S,4R)-4-hydroxy-N-[(1S)-1-[4-(1-methyl-1H-pyrazol-5-yl)phenyl]ethyl]-1-[(2R)-3-methyl-2-{3-[4-({4-[(1r,3r)-3-{4-[(2E)-3-[7-amino-2-(2-hydroxyphenyl)imidazo[1,2-a]pyrimidin-6-yl]prop-2-en-1-yl]piperidin-1-yl}cyclobutoxy]piperidin-1-yl}methyl)piperidin-1-yl]-1,2-oxazol-5-yl}butanoyl]pyrrolidine-2-carboxamide] |  | < 2.5 | > 75 |
| CC(C)[C@@H](C(=O)N1C[C@H](O)C[C@H]1C(=O)N[C@@H](C)c1ccc(-c2ccnn2C)cc1)c1cc(N2CCC(CN3CCC(O[C@H]4C[C@H](OC/C=C/c5cn6cc(-c7ccccc7O)nc6nc5N)C4)CC3)CC2)no1 [Compound 45, (2S,4R)-4-hydroxy-N-[(1S)-1-[4-(1-methyl-1H-pyrazol-5-yl)phenyl]ethyl]-1-[(2R)-3-methyl-2-{3-[4-({4-[(1r,3r)-3-{[(2E)-3-[7-amino-2-(2-hydroxyphenyl)imidazo[1,2-a]pyrimidin-6-yl]prop-2-en-1-yl]oxy}cyclobutoxy]piperidin-1-yl}methyl)piperidin-1-yl]-1,2-oxazol-5-yl}butanoyl]pyrrolidine-2-carboxamide] |  | < 2.5 | > 75 |
| CC(C)[C@@H](C(=O)N1C[C@H](O)C[C@H]1C(=O)N[C@@H](C)c1ccc(-c2ccnn2C)cc1)c1cc(OCCN2CCN(Cc3ccc(C/C=C/c4cn5cc(-c6ccccc6O)nc5nc4N)cc3)CC2)no1 [Compound 46, (2S,4R)-1-[(2R)-2-(3-{2-[4-({4-[(2E)-3-[7-amino-2-(2-hydroxyphenyl)imidazo[1,2-a]pyrimidin-6-yl]prop-2-en-1-yl]phenyl}methyl)piperazin-1-yl]ethoxy}-1,2-oxazol-5-yl)-3-methylbutanoyl]-4-hydroxy-N-[(1S)-1-[4-(1-methyl-1H-pyrazol-5-yl)phenyl]ethyl]pyrrolidine-2-carboxamide] |  | 2.5 to 10 | > 75 |

Now from value to molecule, other results behind:

| Kd [1] [nM] | SMILES | DC50 [2] [nM] | Dmax [2] [%] |
| --- | --- | --- | --- |
| 500 to 2500 | Oc1ccccc1-c1cn2cccnc2n1 [BRM1] |  |  |
| < 500 | C#Cc1cn2cc(-c3ccccc3O)nc2nc1N [BRM3] |  |  |
| ≥ 10000 | Oc1ccn2cc(-c3ccccc3O)nc2n1 [BRM4, 2-(2-hydroxyphenyl) imidazo[1,2-a]pyrimidin-7-ol trifluoroacetate] |  |  |
| 2500 to 10000 | Nc1nc2nc(-c3ccccc3O)cn2cc1C#Cc1ccncc1 [BRM5] |  |  |
| ≥ 10000 | CN1CCN(c2cc(N)nc3nc(-c4ccccc4O)cn23)CC1 [BRM7] |  |  |
| ≥ 10000 | Cn1cc(-c2cc(N)nc3nc(-c4ccccc4O)cn23)cn1 [BRM8] |  |  |
| < 500 | COCCOCC#Cc1cn2cc(-c3ccccc3O)nc2nc1N [BRM13] |  |  |
| 500 to 2500 | CN1CCN(c2cnc3nc(-c4ccccc4O)cn3c2)CC1 [BRM14, 2-[6-(4-methylpiperazin-1-yl)imidazo[1,2-a]pyrimidin-2-yl]phenol] |  |  |
| 500 to 2500 | Cn1cc(-c2cnc3nc(-c4ccccc4O)cn3c2)cn1 [BRM16, 2-[6-(1-methylpyrazol-4-yl)imidazo[1,2-a]pyrimidin-2-yl] phenol] |  |  |
| < 500 | Cn1cc(-c2cn3cc(-c4ccccc4O)nc3nc2N)cn1 [BRM18, 2-[7-amino-6-(1-methylpyrazol-4-yl)imidazo[1,2-a]pyrimidin-2-yl]phenol] |  |  |
| < 500 | COC/C=C/c1cn2cc(-c3ccccc3O)nc2nc1N [BRM19, 2-[7-amino-6-[(E)-3-methoxyprop-1-enyl]imidazo [1,2-a]pyrimidin-2-yl]phenol] |  |  |
